Measurements published in US20260028354A1, “TETRAHYDRONAPHTHALENE DERIVATIVES AS ESTROGEN RECEPTOR DEGRADERS” (REGENT OF THE UNIVERSITY OF MICHIGAN, priority 2022, published 2026).
Counter-ions that a name gives are not always drawn. Like-named read-outs stand apart in the source and are kept apart here.

Columns and labels:
ER in T47D cells = ER in T47D cells (Homo sapiens (Human), UniProt P03372); assay: In-cell Western (ICW) ER degradation assay in T47D cells; type: cell-based; details: for DC50: ER degradation
Sequence of ER in T47D cells (P03372 whole entry): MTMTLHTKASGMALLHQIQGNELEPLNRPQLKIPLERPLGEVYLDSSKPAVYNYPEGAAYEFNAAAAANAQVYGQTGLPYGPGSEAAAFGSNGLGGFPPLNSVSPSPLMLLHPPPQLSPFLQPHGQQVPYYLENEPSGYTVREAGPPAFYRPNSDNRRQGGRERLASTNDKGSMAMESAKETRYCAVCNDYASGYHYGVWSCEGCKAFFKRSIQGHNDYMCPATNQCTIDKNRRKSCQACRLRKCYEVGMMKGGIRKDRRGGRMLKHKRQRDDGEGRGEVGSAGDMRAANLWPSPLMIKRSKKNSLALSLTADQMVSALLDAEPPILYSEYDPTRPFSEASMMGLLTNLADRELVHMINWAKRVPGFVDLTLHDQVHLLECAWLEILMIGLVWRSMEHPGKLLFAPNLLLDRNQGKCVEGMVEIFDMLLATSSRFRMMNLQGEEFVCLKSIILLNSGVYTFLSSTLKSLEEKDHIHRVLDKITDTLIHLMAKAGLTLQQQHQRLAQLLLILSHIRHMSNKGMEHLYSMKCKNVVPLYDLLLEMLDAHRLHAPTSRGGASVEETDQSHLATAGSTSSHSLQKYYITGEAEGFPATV

ER in MCF-7 cells = ER in MCF-7 cells (Homo sapiens (Human), UniProt P03372); assay: In-cell Western (ICW) ER degradation assay in MCF-7 cells; type: cell-based; details: for DC50: MCF-7, ER degradation, read-out: MCF7 DC50
Sequence of ER in MCF-7 cells (P03372 whole entry): as above

CRBN/DDB1 = CRBN/DDB1 (Homo sapiens (Human), UniProt Q96SW2); type: binding; details: His tagged CRBN+DDB1, Cy5-labeled Thalidomide probe, one hour; read-out: CRBN HTRF IC50
Sequence of CRBN/DDB1 (Q96SW2 whole entry, species assumed): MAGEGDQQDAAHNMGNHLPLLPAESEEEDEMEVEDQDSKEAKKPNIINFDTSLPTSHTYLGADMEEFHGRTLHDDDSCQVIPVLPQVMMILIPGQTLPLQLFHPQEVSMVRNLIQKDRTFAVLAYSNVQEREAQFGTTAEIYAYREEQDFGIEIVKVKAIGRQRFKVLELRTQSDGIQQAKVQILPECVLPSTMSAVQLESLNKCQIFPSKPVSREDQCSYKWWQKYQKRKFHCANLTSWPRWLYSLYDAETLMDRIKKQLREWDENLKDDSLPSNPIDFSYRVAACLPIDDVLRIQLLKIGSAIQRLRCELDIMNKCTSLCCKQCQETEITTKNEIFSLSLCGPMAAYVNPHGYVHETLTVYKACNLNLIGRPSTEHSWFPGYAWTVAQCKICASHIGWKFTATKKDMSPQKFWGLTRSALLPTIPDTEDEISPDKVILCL
Sequence of CRBN/DDB1 (Q16531 whole entry partner, species assumed): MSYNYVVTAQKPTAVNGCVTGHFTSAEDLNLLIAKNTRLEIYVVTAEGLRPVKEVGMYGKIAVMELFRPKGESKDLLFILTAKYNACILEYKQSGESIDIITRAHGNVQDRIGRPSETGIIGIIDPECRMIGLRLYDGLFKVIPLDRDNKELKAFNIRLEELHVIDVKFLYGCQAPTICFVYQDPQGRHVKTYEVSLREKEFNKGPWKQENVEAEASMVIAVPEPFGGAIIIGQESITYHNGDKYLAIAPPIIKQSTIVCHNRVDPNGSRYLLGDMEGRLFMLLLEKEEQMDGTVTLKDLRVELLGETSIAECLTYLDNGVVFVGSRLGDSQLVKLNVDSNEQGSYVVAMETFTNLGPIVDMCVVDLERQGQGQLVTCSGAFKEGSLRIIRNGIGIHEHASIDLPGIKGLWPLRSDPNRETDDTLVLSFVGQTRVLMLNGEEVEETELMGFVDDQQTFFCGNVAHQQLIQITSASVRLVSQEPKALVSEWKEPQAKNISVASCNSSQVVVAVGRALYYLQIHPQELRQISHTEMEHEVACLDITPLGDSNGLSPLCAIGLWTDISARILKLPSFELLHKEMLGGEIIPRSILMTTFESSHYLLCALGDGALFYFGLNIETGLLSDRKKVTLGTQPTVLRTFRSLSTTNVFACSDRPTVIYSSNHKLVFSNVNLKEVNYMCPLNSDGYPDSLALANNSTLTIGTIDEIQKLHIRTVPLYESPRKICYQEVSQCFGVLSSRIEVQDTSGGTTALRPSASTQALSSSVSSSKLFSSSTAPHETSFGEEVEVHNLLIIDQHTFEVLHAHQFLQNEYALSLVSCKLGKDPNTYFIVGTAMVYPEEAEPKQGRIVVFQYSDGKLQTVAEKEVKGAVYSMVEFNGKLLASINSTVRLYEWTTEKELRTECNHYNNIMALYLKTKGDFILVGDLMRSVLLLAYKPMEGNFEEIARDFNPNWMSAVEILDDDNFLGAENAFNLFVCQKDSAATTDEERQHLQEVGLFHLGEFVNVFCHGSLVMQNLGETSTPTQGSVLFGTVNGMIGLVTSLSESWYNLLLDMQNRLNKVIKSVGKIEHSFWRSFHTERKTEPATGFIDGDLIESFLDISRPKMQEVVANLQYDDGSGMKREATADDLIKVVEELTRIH
Protocol: The binding potency was determined using HTRF assay technology (Perkin Elmer). Compounds were serially diluted in DMSO and […] volume was transferred to white 384-well plate.

[1] = maximal ER degradation, 16 hrs treatment, read-out: T47D Dmax
[2] = MCF7, MCF-7, maximal ER degradation, 16 hrs treatment, read-out: MCF7 Dmax
[3] = read-out: T47D Dmax, T47D, maximal ER degradation, 16 hrs treatment
[4] = MCF7, read-out: MCF7 Dmax, MCF-7, maximal ER degradation, 16 hrs treatment

| SMILES | DC50 (ER in T47D cells; 16 hrs treatment) | Dmax (ER in T47D cells; [1]) | Dmax (ER in MCF-7 cells; [2]) | DC50 (ER in MCF-7 cells; 16 hrs treatment) | IC50 (CRBN/DDB1) | Dmax (ER in T47D cells; [3]) | Dmax (ER in MCF-7 cells; [4]) |
| --- | --- | --- | --- | --- | --- | --- | --- |
| COc1cc(C(=O)NC2CCC(=O)NC2=O)ncc1N1CCN(CC2CCN(c3ccc([C@@H]4c5ccc(O)cc5CC[C@@H]4c4ccccc4)cc3)CC2)CC1 (stereo partly drawn) [Compound A5, N-(2,6-dioxopiperidin-3-yl)-5-(4-((1-(4-((1R,2S)-6-hydroxy-2-phenyl-1,2,3,4-tetrahydro-naphthalen-1-yl)phenyl)piper-idin-4-yl)methyl)piperazin-1-yl)-4-methoxypicolinamide] | < 1 nM | 25 to 50% | 50 to 75% | < 1 nM | > 5000 nM |  |  |
| O=C1CC[C@H](N2Cc3cc4c(cc3C2=O)OC[C@H]2CN(C[C@@H]3COC5(CCN(c6ccc([C@H]7c8ccc(O)cc8CC[C@H]7c7ccccc7)cc6)CC5)C3)CCN42)C(=O)N1 [Compound A20, (S)-3-((R)-3-(((R)-8-(4-((1S, 2R)-6-hydroxy-2-phenyl-1,2,3,4-tetrahydronaphthalen-1-yl)phenyl)-1-oxa-8-azaspiro [4.5]decan-3-yl)methyl)-8-oxo-1,2,3,4,4a,5,8,10-oCtahydro-9H-pyrazino[1′,2′:4,5][1,4]oxazino[2,3-f]isoindol-9-yl)-piperidine-2,6-dione] | < 1 nM | 50 to 75% | 50 to 75% | < 1 nM | 50 to 500 nM |  |  |
| COc1cc(N2CCC(CN3CCC4(CC3)COc3c4ccc4c3CN([C@H]3CCC(=O)NC3=O)C4=O)CC2)ccc1[C@H]1c2ccc(O)cc2CC[C@H]1c1ccccc1 [Compound A36, (R)-3-(1′-((1-(4-((1S,2S)-6-hydroxy-2-phenyl-1,2,3,4-tetrahydronaphthalen-1-yl)-3-methoxyphenyl)piperidin-4-yl)methyl)-6-oxo-6,8-dihydro-2H,7H-spiro[furo[2,3-e]iso-indole-3,4′-piperidin]-7-yl)-piperidine-2,6-dione formate] | < 1 nM |  |  | < 1 nM | < 50 nM | 25 to 50% | 50 to 75% |
| COc1cc(N2CCC(CN3CCC4(CC3)COc3c4ccc4c3CN([C@H]3CCC(=O)NC3=O)C4=O)CC2)ccc1[C@@H]1c2ccc(O)cc2CC[C@@H]1c1ccccc1 [Compound A37, (R)-3-(1′-((1-(4-((1R,2R)-6-hydroxy-2-phenyl-1,2,3,4-tetrahydronaphthalen-1-yl)-3-methoxyphenyl)piperidin-4-yl)methyl)-6-oxo-6,8-dihydro-2H,7H-spiro[furo[2,3-e]iso-indole-3,4′-piperidin]-7-yl)-piperidine-2,6-dione] | < 1 nM |  |  | < 1 nM | < 50 nM | 25 to 50% | 25 to 50% |
| COc1cc(N2CCC(CN3CCN4c5ccc6c(c5OC[C@H]4C3)CN([C@H]3CCC(=O)NC3=O)C6=O)CC2)c(F)cc1[C@H]1c2ccc(O)cc2CC[C@H]1c1ccccc1 [Compound A39, (S)-3-((R)-7-((1-(2-fluoro-4-((1R,2R)-6-hydroxy-2-phenyl-1,2,3,4-tetrahydronaphthalen-1-yl)-5-methoxyphenyl)piper-idin-4-yl)methyl)-1-oxo-1,3,5,5a,6,7,8,9-octahydro-2H-pyrazino[1′,2′:4,5][1,4]oxazino [2,3-e]isoindol-2-yl)piperidine-2,6-dione] | 1 to 10 nM | 50 to 75% | 25 to 50% | 10 to 100 nM | 50 to 500 nM |  |  |
| O=C1CCC(Nc2ccc(C34CCN(C[C@H]5COC6(CCN(c7ccc([C@@H]8c9ccc(O)cc9CC[C@@H]8c8ccccc8)cc7)CC6)C5)CC3C4(F)F)cc2)C(=O)N1 (stereo partly drawn) [Compound A44, (3S)-3-((4-(7,7-difluoro-3-(((S)-8-(4-((1R,2S)-6-hydroxy-2-phenyl-1,2,3,4-tetrahydro-naphthalen-1-yl)phenyl)-1-oxa-8-azaspiro[4.5]decan-3-yl)-methyl)-3-azabicyclo[4.1.0]heptan-6-yl)phenyl)amino)-piperidine-2,6-dione] | > 100 nM |  |  | > 100 nM | > 5000 nM | < 25% | < 25% |
| O=C1CCC(Nc2ccc(C34CCN(C[C@@H]5COC6(CCN(c7ccc([C@@H]8c9ccc(O)cc9CC[C@@H]8c8ccccc8)cc7)CC6)C5)CC3C4(F)F)cc2)C(=O)N1 (stereo partly drawn) [Compound A45, (3S)-3-((4-(7,7-difluoro-3-(((R)-8-(4-((1R,2S)-6-hydroxy-2-phenyl-1,2,3,4-tetrahydro-naphthalen-1-yl)phenyl)-1-oxa-8-azaspiro[4.5]decan-3-yl)-methyl)-3-azabicyclo[4.1.0]heptan-6-yl)phenyl)amino)-piperidine-2,6-dione] | > 100 nM |  |  | > 100 nM | > 5000 nM | < 25% | < 25% |
| COc1cc(N2CCC3(CC2)CC(CN2CCN4c5ccc6c(c5OC[C@H]4C2)CN([C@H]2CCC(=O)NC2=O)C6=O)CO3)ccc1[C@@H]1c2ccc(O)cc2CC[C@@H]1c1ccccc1 (stereo partly drawn) [Compound A53, (3S)-3-((5aR)-7-((8-(4-((1S, 2S)-6-hydroxy-2-phenyl-1,2,3,4-tetrahydronaphthalen-1-yl)-3-methoxyphenyl)-1-oxa-8-azaspiro[4.5]decan-3-yl)-methyl)-1-oxo-1,3,5,5a,6,7,8,9-octahydro-2H-pyrazino[1′,2′: 4,5][1,4]oxazino[2,3-e]isoindol-2-yl)piperidine-2,6-dione] | 1 to 10 nM | 50 to 75% | 25 to 50% | 10 to 100 nM | < 50 nM |  |  |
| COc1cc(N2CCC3(CC2)CC(CN2CCC4(CC2)COc2c4ccc4c2CN([C@H]2CCC(=O)NC2=O)C4=O)CO3)ccc1[C@@H]1c2ccc(O)cc2CC[C@@H]1c1ccccc1 (stereo partly drawn) [Compound A55, (3S)-3-(1′-((8-(4-((1S,2S)-6-hydroxy-2-phenyl-1,2,3,4-tetrahydronaphthalen-1-yl)-3-methoxyphenyl)-1-oxa-8-azaspiro[4.5]decan-3-yl)meth-yl)-6-oxo-6,8-dihydro-2H,7H-spiro[furo[2,3-e]isoindole-3,4′-piperidin]-7-yl)piperidine-2,6-dione] | 1 to 10 nM |  |  | 10 to 100 nM | < 50 nM | 50 to 75% | 25 to 50% |
| COc1cc(N2CCC3(CC2)CC(CN2CCN4c5cc6c(cc5OC[C@@H]4C2)C(=O)N([C@H]2CCC(=O)NC2=O)C6)CO3)ccc1[C@@H]1c2ccc(O)cc2CC[C@@H]1c1ccccc1 (stereo partly drawn) [Compound A57, (3S)-3-((4aS)-3-((8-(4-((1S,2S)-6-hydroxy-2-phenyl-1,2,3,4-tetrahydronaphthalen-1-yl)-3-methoxyphenyl)-1-oxa-8-aza-spiro[4.5]decan-3-yl)methyl)-8-oxo-1,2,3,4,4a,5,8,10-octa-hydro-9H-pyrazino[1′,2′:4,5] [1,4]oxazino[2,3-f]isoindol-9-yl)pipcridinc-2,6-dionc] | 1 to 10 nM | 50 to 75% | 25 to 50% | 10 to 100 nM | 50 to 500 nM |  |  |
| O=C1CCC(NC(=O)c2ccc(N3CCN(CC4CCN(c5ccc([C@@H]6c7ccc(O)cc7CC[C@@H]6c6ccccc6)cc5)CC4)CC3)cn2)C(=O)N1 (stereo partly drawn) [Compound A58, N-(2,6-dioxopiperidin-3-yl)-5-(4-((1-(4-((1R,2S)-6-hydroxy-2-phenyl-1,2,3,4-tetrahydro-naphthalen-1-yl)phenyl)piper-idin-4-yl)methyl)piperazin-1-yl)picolinamide] | < 1 nM | 50 to 75% | > 75% | < 1 nM | > 5000 nM |  |  |
| O=C1CC[C@@H](Nc2ccc([C@@]34CCN(CC5CCC6(CC5)CN(c5ccc([C@@H]7c8ccc(O)cc8CC[C@@H]7c7ccccc7)cc5)C6)C[C@@H]3C4(F)F)cc2)C(=O)N1 [Compound A64, (R)-3-((4-((1R,6R)-7,7-difluoro-3-((2-(4-((1R,2S)-6-hydroxy-2-phenyl-1,2,3,4-tetra-hydronaphthalen-1-yl)phenyl)-2-azaspiro[3.5]nonan-7-yl)-methyl)-3-azabicyclo[4.1.0]heptan-6-yl)phenyl)amino)-piperidine-2,6-dione] | 1 to 10 nM |  |  | 1 to 10 nM | > 5000 nM | 50 to 75% | 50 to 75% |
| O=C1CC[C@@H](Nc2ccc([C@@]34CCN(CC5CC6(CCN(c7ccc([C@@H]8c9ccc(O)cc9CC[C@@H]8c8ccccc8)cc7)CC6)C5)C[C@@H]3C4(F)F)cc2)C(=O)N1 [Compound A67, (R)-3-((4-((1R,6R)-7,7-difluoro-3-((7-(4-((1R,2S)-6-hydroxy-2-phenyl-1,2,3,4-tetrahydronaphthalen-1-yl)-phenyl)-7-azaspiro[3.5]nonan-2-yl)methyl)-3-azabicyclo [4.1.0]heptan-6-yl)phenyl)-amino)piperidine-2,6-dione] | 1 to 10 nM |  |  | 1 to 10 nM | > 5000 nM | 50 to 75% | 50 to 75% |
| COc1cc(N2CCC(CN3CC[C@]4(c5ccc(N[C@@H]6CCC(=O)NC6=O)cc5)[C@H](C3)C4(F)F)CC2)ccc1[C@@H]1c2ccc(O)cc2CC[C@@H]1c1ccccc1 [Compound A89, (R)-3-((4-((1R,6R)-7,7-difluoro-3-((1-(4-((1S,2S)-6-hydroxy-2-phenyl-1,2,3,4-tetra-hydronaphthalen-1-yl)-3-meth-oxyphenyl)piperidin-4-yl)meth-yl)-3-azabicyclo[4.1.0]heptan-6-yl)phenyl)amino)-piperidine-2,6-dione] | < 1 nM |  |  | < 1 nM | > 5000 nM | 25 to 50% | 25 to 50% |
